{"source": "patent US12129504B2", "about": "“Caproate-producing bacterium with multiple substrate utilization capabilities and its applications” (Jiangnan University, priority 2021, dated 2024)", "key": {"[1]": {"conditions": "cited from earlier work"}, "[2]": {"system": "Oscillospiraceae sp. LBM10036", "experiment": "Tolerance of the strain to toxicity of caproic acid: growth (OD600) in liquid mediums with different initial concentrations of caproic acid", "format": "cell-based", "excerpt": "A brewing environment of Strong aroma-type Baijiu is characterized by a low pH, and the lower the pH, the higher the content of free caproic acid in a system. Free caproic acid can cause toxicity to bacterial cells, therefore, the stronger the tolerance of bacterial cells to the toxicity of caproic acid, the more favorable it is for the survival of the bacterial cells in a system. The growth of the Oscillospiraceae sp. LBM10036 was tracked and measured by designing liquid mediums with different initial concentrations of caproic acid.\nThe medium contains (calculated in g/L): glucose 20.0, yeast powder 10.0, peptone 10.0, dipotassium hydrogen phosphate 1.0, potassium dihydrogen phosphate 0.5, ammonium sulfate 2.0, magnesium sulfate 0.1, and a cosubstrate 5.0, as well as a trace element nutrient solution 0.15-1.0 (mL/L). The cosubstrate is one or both of acetate and butyrate. The trace element nutrient solution contains (calculated in g/L): calcium chloride 10, cobalt chloride 10, zinc sulfate 10, manganese sulfate 10, and ferrous sulfate heptahydrate 15. The pH of the medium is 5.5, and the medium was sterilized at 115° C. for 30 min.\nThe dissolved medium was divided into 5 blue cap bottles (100 mL), each blue cap bottle containing 100 mL of medium. Before sterilization, the initial concentrations of caproic acid in the mediums were adjusted to 0 g/L, 1 g/L, 2 g/L, 3 g/L, and 4 g/L using a caproic acid standard. At this point, the initial concentrations of free caproic acid in the mediums were 0 g/L, 0.19 g/L, 0.37 g/L, 0.56 g/L, and 0.75 g/L, respectively. The mediums were sterilized at 115° C. for 30 min. After sterilization, the medium of each initial concentration gradient of caproic acid was divided into 3 parts, each part containing 30 mL in a 50 mL centrifuge tube. The residual mediums were taken out of an anaerobic incubator for re-determining the pH and initial concentrations of total caproic acid, and calculating whether the actual concentrations of free caproic acid meet the experimental design.\n(1) An Oscillospiraceae sp. LBM10036 frozen glycerol tube was taken out from a −80° C. refrigerator, activated for cultivation for the first generation at 37° C. in the modified Clostridium growth medium prepared in (1) step 1 until the OD600 was 1.5-2.0 to obtain a first generation seed solution, and then the first generation seed solution was transferred to a fresh modified Clostridium growth medium at an inoculum concentration of 5% (v/v) and activated for the second generation cultivation at 37° C. for 12-18 h until the OD600 was 1.5-2.0 to obtain a second generation seed solution.\n(2) 100 mL of the modified Clostridium growth medium described in step (1) was inoculated with the second generation seed solution obtained in step (1) at an inoculum concentration of 5% (v/v) and cultivated until the OD value was 1.5-2.0, to obtain a culture solution.\n(3) The mediums with different initial concentration gradients of caproic acid prepared in (2) of step 1 were inoculated with the prepared culture solution at an inoculum concentration of 5% (v/v). The medium of each initial concentration gradient of caproic acid had 3 replicates, and sampled from 0 to 72 h at an interval of 12 h. The maximum specific growth rates under different initial concentration gradients of caproic acid were plotted (as shown in FIG. 4)."}}, "data": [{"smiles": "CCCCCC(=O)O", "note": "[caproic acid]", "values": [{"measurement": "pKa", "setting": "[1]", "result": 4.86}, {"measurement": "growth of Oscillospiraceae sp.", "setting": "[2]; caproic acid 4 g/L (free caproic acid 0.75 g/L)", "result": "significantly inhibited"}, {"measurement": "concentration of free caproic acid at the maximum tolerable initial concentration", "setting": "[2]; free caproic acid calculated from pH 5.5 and pKa 4.86", "result": 0.56, "unit": "g/L"}, {"measurement": "OD600", "setting": "[2]; initial caproic acid 1 g/L, 0 h, medium pH 5.5", "result": "0.26 ± 0.00"}, {"measurement": "OD600", "setting": "[2]; initial caproic acid 1 g/L, 12 h, medium pH 5.5", "result": "0.53 ± 0.02"}, {"measurement": "OD600", "setting": "[2]; initial caproic acid 1 g/L, 24 h, medium pH 5.5", "result": "1.96 ± 0.17"}, {"measurement": "OD600", "setting": "[2]; initial caproic acid 1 g/L, 48 h, medium pH 5.5", "result": "2.39 ± 0.20"}, {"measurement": "OD600", "setting": "[2]; initial caproic acid 1 g/L, 72 h, medium pH 5.5", "result": "2.25 ± 0.32"}, {"measurement": "OD600", "setting": "[2]; initial caproic acid 2 g/L, 0 h, medium pH 5.5", "result": "0.27 ± 0.01"}, {"measurement": "OD600", "setting": "[2]; initial caproic acid 2 g/L, 12 h, medium pH 5.5", "result": "0.30 ± 0.02"}, {"measurement": "OD600", "setting": "[2]; initial caproic acid 2 g/L, 24 h, medium pH 5.5", "result": "1.06 ± 0.37"}, {"measurement": "OD600", "setting": "[2]; initial caproic acid 2 g/L, 48 h, medium pH 5.5", "result": "2.00 ± 0.10"}, {"measurement": "OD600", "setting": "[2]; initial caproic acid 2 g/L, 72 h, medium pH 5.5", "result": "1.72 ± 0.17"}, {"measurement": "OD600", "setting": "[2]; initial caproic acid 3 g/L, 0 h, medium pH 5.5", "result": "0.26 ± 0.01"}, {"measurement": "OD600", "setting": "[2]; initial caproic acid 3 g/L, 12 h, medium pH 5.5", "result": "0.69 ± 0.06"}, {"measurement": "OD600", "setting": "[2]; initial caproic acid 3 g/L, 24 h, medium pH 5.5", "result": "0.88 ± 0.07"}, {"measurement": "OD600", "setting": "[2]; initial caproic acid 3 g/L, 48 h, medium pH 5.5", "result": "1.46 ± 0.07"}, {"measurement": "OD600", "setting": "[2]; initial caproic acid 3 g/L, 72 h, medium pH 5.5", "result": "1.44 ± 0.05"}, {"measurement": "OD600", "setting": "[2]; initial caproic acid 4 g/L, 0 h, medium pH 5.5", "result": "0.23 ± 0.01"}, {"measurement": "OD600", "setting": "[2]; initial caproic acid 4 g/L, 12 h, medium pH 5.5", "result": "0.22 ± 0.01"}, {"measurement": "OD600", "setting": "[2]; initial caproic acid 4 g/L, 24 h, medium pH 5.5", "result": "0.20 ± 0.01"}, {"measurement": "OD600", "setting": "[2]; initial caproic acid 4 g/L, 48 h, medium pH 5.5", "result": "0.21 ± 0.04"}, {"measurement": "OD600", "setting": "[2]; initial caproic acid 4 g/L, 72 h, medium pH 5.5", "result": "0.20 ± 0.02"}, {"measurement": "maximum tolerable initial concentration of caproic acid", "setting": "[2]; total caproic acid, medium pH 5.5", "result": 3, "unit": "g/L"}]}]}
